Reference: publication PMC5915149, “The role of oxidative stress in activity of anticancer thiosemicarbazones” (Oncotarget, 2018)
Where two headings read alike, the source gives them in different places.

Assays:
HCT116 cells = experiment: Cell cycle assay (Muse Cell-Cycle Kit); assay type: cell-based, human; details: HCT116, TSC 1 µM, 48 h
Protocol: The HCT116 cells were seeded in 3 cm Petri dishes (Nunc) at a density of 0.25·10^6 cells/well and incubated at 37° C for 24 h. […] After a 48 h treatment, assays were performed using a Muse Cell-Cycle Kit (Millipore) according to the manufacturer’s instructions. Briefly, cells were collected, washed with cold PBS and centrifuged at 300 g. Then, the cells were fixed in ice cold 70% ethanol and stored at –20° C overnight. Afterwards, the cells were centrifuged and resuspended in 200 μL of Muse™ Cell Cycle Reagent and incubated for 30 min at room temperature in the dark. After staining, the cells were processed for cell cycle analysis using a Muse Cell Analyzer (Millipore). The experiments were performed at least three times.

HCT116 [1] = system: HCT116; set-up: method as in PMID 25329549; details: 96 h incubation, MTS; cited from earlier work
HCT116 [2] = experiment: MTS antiproliferative assay, HCT116 (with or without added metal ions); assay type: cell-based, human; details: 96 h
Protocol: The cells were seeded in 96-well plates (Nunc) at a density of 3,500 cells/well (HCT116 and MCF-7) and 3,000 cells/well (NHDF) and incubated at 37° C for 24 h. The assay was performed following a 96 h incubation with varying concentrations of the compounds that were being tested. Then, 20 µL of CellTiter 96® AQueous One Solution-MTS (Promega) was added to each well (with 100 µL DMEM without phenol red) and incubated for 1 h at 37° C. The optical densities of the samples were analyzed at 490 nm using a multi-plate reader (Synergy 4, Bio Tek). Results were expressed as a percentage of the control and calculated as the inhibitory concentration (IC50) values (using GraphPad Prism 5). The IC50 parameter was defined as the compound concentration that was necessary to reduce the proliferation of cells to 50% of the untreated control. Each individual compound was tested in triplicate in a single experiment with each experiment being repeated three or four times.
The HCT116 and MCF-7 cells were seeded in 96-well plates (Nunc) at a density of 3,500 cells/well and incubated at 37° C for 24 h. The MTS assay was performed following a 96 h incubation with varying concentrations of the tested compounds. Additionally, a 20 µM solution of CuSO4, FeSO4 or FeCl3 was added into wells with the tested compounds. The results were expressed as a percentage of the control and calculated as the inhibitory concentration (IC50) values using GraphPad Prism 5. Each individual compound was tested in triplicate in a single experiment with each experiment being repeated three times.

NHDF = system: NHDF; set-up: method as in PMID 25329549; details: 96 h incubation, MTS; cited from earlier work
calf-thymus DNA (CT-DNA) = experiment: Intercalation, absorption spectra with CT-DNA; assay type: binding
Protocol: For the DNA binding studies, Calf-thymus DNA (CT-DNA) was purchased from Sigma Aldrich. The lyophilized CT-DNA was dissolved in 10 mM Tris-HCl, pH 7.9, mixed gently and left overnight at 4° C. The purity of the CT-DNA solution was determined by measuring the ratio of UV absorbance at 260 and 280 nm. […] Then, the concentration of CT-DNA was determined from the absorbance at 260 nm using an extinction coefficient of 6600 M^–1cm^–1. The tested TSC and DOX were dissolved in DMSO to a concentration of 8.35 mM, which was then used as the stock solution for preparing the various concentrations (25, 12.5, 6 and 3 µM) in 1 mL in 10 mM of Tris-HCl (pH 7.9). Afterwards, 18 µM CT-DNA was added to the prepared solutions, which were incubated for 1.5 h at 37° C with occasional vortexing. The absorption spectra were measured using a Hitachi U-2900 spectrophotometer in range of 200–500 nm. All absorption spectra were imported and compared in OriginPro 8.0.

cdc2 = experiment: Western blot of cdc2; assay type: cell-based, human; details: HCT116, 1 µM
Protocol: The HCT116 cells were seeded in 3 cm Petri dishes (Nunc) at a density of 0.5·10^6 cells/well and incubated overnight. The next day, solutions of TSC (1 μM) and DOX (5 μM) were added and the cells incubated for 24 or 48 h. Cells were harvested by trypsinization and washed with cold PBS. Next, the cells were centrifuged and suspended in an RIPA buffer (Thermo Scientific) containing Halt Protease Inhibitor Cocktail (Thermo Scientific), Halt Phosphatase Inhibitor Cocktail (Thermo Scientific) along with 0.5 M EDTA and lysed for 20 min on ice. Then, the lysates were sonicated, centrifuged at 10,000 rpm for 10 min at 4° C and the supernatants were collected for further analysis. The protein concentration was determined using a Micro BCA™ Protein Assay Kit (Thermo Scientific) according to the manufacturer’s instructions. Equal amounts of the proteins (20 μg) were electrophoresed on SDS-Page gels and transferred onto a nitrocellulose membranes. The membranes were blocked in 5% non-fat milk prepared in PBS containing 0.1% Tween-20 (TPBS) for 1 h. After blocking, the membranes were incubated with specific primary antibodies: cdc2 (#POH1, Cell Signaling), p21^Waf1/Cip1 (#12D1, Cell Signaling), p53 (#1C12, Cell Signaling) and β-Actin (#8H10D10, Cell Signaling) overnight at 4° C, then washed and incubated with horseradish peroxidase (HRP)-conjugated secondary antibodies for 1h at room temperature. All of antibodies were diluted 1:1000 in 5% milk in TPBS. Finally, the membranes were washed and incubated with a SuperSignal™ West Pico Chemiluminescent Substrate (Thermo Scientific). The chemiluminescence signals were captured using a ChemiDoc™ XRS+ System (BioRad). The experiments were performed at least three times. Densitometric analysis was performed using ImageJ 1.41 software (Wayne Rasband, National Institutes of Health, USA).

For `S=C(NN=C(c1ccccn1)c1ccccn1)N1CCN(c2ccccc2)CC1` [Compound 3a], the “cells in S phase” value (HCT116 cells) is given as 33–35%, the “cells in G2/M phase” value (HCT116 cells; untreated 7%) is given as 17% and the IC50 (HCT116 [1]) is given as 0.81 ± 0.13 nM. The IC50 (HCT116 [2]; 20 µM CuSO4 added, read-out: Activity - IC50 HCT116+ Cu^2+) was 0.68 ± 0.15 nM, the IC50 (HCT116 [2]; 20 µM FeCl3 added, read-out: Activity - IC50 HCT116+ Fe^3+) was 2.07 ± 0.78 nM and the IC50 (NHDF) was 1.73 ± 0.71 nM. For the same compound, the “% hypochromism” value (calf-thymus DNA (CT-DNA); bound to CT-DNA) was 28.2%, the Changes in absorbance (calf-thymus DNA (CT-DNA); bound to CT-DNA) was “hypochromism” and the Δε (calf-thymus DNA (CT-DNA); bound to CT-DNA) was 4120.0 M⁻¹ cm⁻¹. For the same compound, the blue/red shift (calf-thymus DNA (CT-DNA); wavelengths of maximum absorption, compound alone vs DNA-bound) was 5 nm and the “expression of cdc2 protein (densitometric analysis)” value (cdc2) was “increased the expression”.
